Data taken from patent US20230075856A1, “CYCLIC SULFAMIDE COMPOUNDS FOR TREATMENT OF HBV” (Assembly Biosciences, Inc., priority 2018, published 2023).
Where two headings read alike, the source gives them in different places.

System: HBV viral load production from HepAD38 cells
Assay: Viral production from HepAD38 cells: viral load in supernatant by qPCR of the HBV core sequence
Type: cell-based
Settings: 5 days incubation, qPCR of supernatant HBV DNA vs DMSO control, read-out: viral load lowering EC50 (Activity)
Outline: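 Viral load was measured by qPCR of the HBV core region in supernatant, quantified against DNA standards and compared with DMSO wells. Cells (50,000/well, tetracycline withdrawn, 2% FBS) received compound from 10 μM final for 5 days; EC50 from four-parameter nonlinear regression.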

[1] = Hepatitis B virus, HePAD38, 120 h

Row | SMILES | EC50 [1] [nM] | EC50 [nM]
1 | CN1C(C(=O)Nc2ccc(F)c(Cl)c2)CC(C(=O)NCc2cnc(-c3ccc(F)cc3)s2)NS1(=O)=O (single isomer, unassigned) [Compound 916-ISOMER-A, N3-(3-chloro-4-fluoro-phenyl)-N5-[[2-(4-fluorophenyl)thiazol-5-yl]methyl]-2-methyl-1,1-dioxo-1,2,6-thiadiazinane-3,5-dicarboxamide] | 100 to 10000 | –
2 | CN1C(C(=O)Nc2ccc(F)c(Cl)c2)CC(C(=O)NCc2ccccc2)NS1(=O)=O (centres unmarked) [Compound 718] | < 50 | –
3 | CN1C(C(=O)Nc2ccc(F)c(Cl)c2)CC(C(=O)NCc2cnc(-n3cccn3)s2)NS1(=O)=O (centres unmarked) [Compound 1157] | 50 to 100 | –
4 | Cc1nc(-c2ccccn2)sc1CNC(=O)C1CC(C(=O)Nc2ccc(F)c(Cl)c2)N(C)S(=O)(=O)N1 (single isomer, unassigned) [1065-ISOMER-B, N3-(3-chloro-4-fluoro-phenyl)-2-methyl-N5-[[4-methyl-2-(2-pyridyl)thiazol-5-yl]methyl]-1,1-dioxo-1,2,6-thiadiazinane-3,5-dicarboxamide] | – | < 50
5 | CN1C(C(=O)Nc2ccc(F)c(Cl)c2)CC(C(=O)NCc2csc(-c3ccc(OCCN4CCCCC4)cc3)n2)NS1(=O)=O (single isomer, unassigned) [Compound 957-ISOMER-B, N3-(3-chloro-4-fluoro-phenyl)-2-methyl-1,1-dioxo-N5-[[2-[4-[2-(1-piperidyl)ethoxy]phenyl]thiazol-4-yl]methyl]-1,2,6-thiadiazinane-3,5-dicarboxamide] | – | 100 to 10000
6 | CN1C(C(=O)Nc2ccc(F)c(Cl)c2)CC(C(=O)NCc2sc(Cl)nc2C(F)(F)F)NS1(=O)=O (centres unmarked) [Compound 1062] | 50 to 100 | –
7 | CN1C(C(=O)Nc2ccc(F)c(Cl)c2)CC(C(=O)NC2CCN(c3cc(CN4CCCCC4)ccn3)CC2)NS1(=O)=O (single isomer, unassigned; isomer-b) [Compound 975-ISOMER-B, N3-(3-chloro-4-fluroo-phenyl)-2-methyl-1,1-dioxo-N5-[1-[4-(1-piperidylmethyl)-2-pyridyl]-4-piperidyl]-1,2,6-thiadiazinane-3,5-dicarboxamide] | – | 100 to 10000
8 | Cc1nc(CNC(=O)C2CC(C(=O)Nc3ccc(F)c(Cl)c3)N(C)S(=O)(=O)N2)sc1-c1ccccc1F (centres unmarked) [Compound 1085] | < 50 | –
9 | CN1C(C(=O)Nc2ccc(F)c(Cl)c2)CC(C(=O)NCc2cnc(-c3cscn3)s2)NS1(=O)=O (centres unmarked) [Compound 929] | < 50 | –
10 | CN1C(C(=O)Nc2ccc(F)c(Cl)c2)CC(C(=O)NC2CCCCC2)NS1(=O)=O (centres unmarked) [Compound 728] | 100 to 10000 | –
11 | CN1C(C(=O)Nc2ccc(F)c(Cl)c2)CC(C(=O)NCc2cnc(N)s2)NS1(=O)=O (centres unmarked) [Compound 1132] | 100 to 10000 | –
12 | CN1C(C(=O)Nc2ccc(F)c(C#N)c2)CC(C(=O)NC2CC2c2ccccc2)NS1(=O)=O (centres unmarked) [Compound 826] | 100 to 10000 | –
13 | CN1C(C(=O)Nc2ccc(F)c(Cl)c2)CC(C(=O)NCc2sc(-c3ccccc3F)nc2C(F)(F)F)NS1(=O)=O (single isomer, unassigned) [1082-ISOMER-B, N3-(3-chloro-4-fluoro-phenyl)-N5-[[2-(2-fluorophenyl)-4-(trifluoromethyl)thiazol-5-yl]methyl]-2-methyl-1,1-dioxo-1,2,6-thiadiazinane-3,5-dicarboxamide] | – | 50 to 100
14 | CN1C(C(=O)Nc2ccc(F)c(Cl)c2)CC(C(=O)NCCCc2ccccc2)NS1(=O)=O (centres unmarked) [Compound 726] | 50 to 100 | –
15 | CN1C(C(=O)Nc2ccc(F)c(Cl)c2)CC(C(=O)NCc2nc(C(F)(F)F)cs2)NS1(=O)=O (centres unmarked) [Compound 1202] | 100 to 10000 | –
16 | CN1C(C(=O)Nc2ccc(F)c(Cl)c2)C[C@@H](C(=O)N[C@H](c2ccccc2)c2cnc(-c3ccccc3Cl)s2)NS1(=O)=O (single isomer, unassigned) [1068-ISOMER-C] | < 50 | –
17 | Cc1nc(-c2ccc(F)cc2F)sc1CNC(=O)C1CC(C(=O)Nc2ccc(F)c(Cl)c2)N(C)S(=O)(=O)N1 (single isomer, unassigned; isomer-b) [1083-ISOMER-B, N3-(3-chloro-4-fluoro-phenyl)-N5-[[2-(2,4-difluroophenyl)-4-methyl-thiazol-5-yl]methyl]-2-methyl-1,1-dioxo-1,2,6-thiadiazinane-3,5-dicarboxamide] | – | 100 to 10000
18 | CN1C(C(=O)Nc2ccc(F)c(Cl)c2)CC(C(=O)NCc2cnc(-c3ccc(OCCCN4CCSCC4)cc3)s2)NS1(=O)=O (single isomer, unassigned) [Compound 925-ISOMER-A, N3-(3-chloro-4-fluoro-phenyl)-2-methyl-1,1-dioxo-N5-[[2-[4-(3-thiomorpholinopropoxy)phenyl]thiazol-5-yl]methyl]-1,2,6-thiadiazinane-3,5-dicarboxamide] | < 50 | –
19 | Cc1nc(-c2ccccc2Cl)sc1[C@H](NC(=O)C1CC(C(=O)Nc2ccc(F)c(Cl)c2)N(C)S(=O)(=O)N1)c1ccccc1 (single isomer, unassigned) [1100-ISOMER-C] | 100 to 10000 | –

Row | SMILES | EC50 [1] [nM] | EC50 [nM]
20 | CN1C(C(=O)Nc2ccc(F)c(Cl)c2)CC(C(=O)NC2CCOCC2)NS1(=O)=O (centres unmarked) [Compound 738] | 50 to 100 | –
21 | CN1C(C(=O)Nc2ccc(F)c(C#N)c2)CC(C(=O)NCc2ccccc2)NS1(=O)=O (centres unmarked) [Compound 833] | 100 to 10000 | –
22 | CN1C(C(=O)Nc2ccc(F)c(Cl)c2)CC(C(=O)N[C@H]2CCN(c3ccnc(Cl)c3)C2)NS1(=O)=O (single isomer, unassigned) [1055-S-ISOMER-A] | 100 to 10000 | –
23 | CN1C(C(=O)Nc2ccc(F)c(Cl)c2)CC(C(=O)NCc2ccccc2)NS1(=O)=O (single isomer, unassigned) [Compound 718-ISOMER-B, N5-benzyl-N3-(3-chloro-4-fluorophenyl)-2-methyl-1,1-dioxo-1,2,6-thiadiazinane-3,5-dicarboxamide] | – | 100 to 10000
24 | CN1C(C(=O)Nc2ccc(F)c(Cl)c2)CC(C(=O)N[C@@H](c2ccccc2)c2cnc(-c3ccccc3Cl)s2)NS1(=O)=O (single isomer, unassigned) [1068-ISOMER-B] | 50 to 100 | –
25 | CN1C(C(=O)Nc2ccc(F)c(Cl)c2)CC(C(=O)NC(c2ccccc2)c2ccccc2)NS1(=O)=O (centres unmarked) [Compound 1014] | < 50 | –
26 | CN1C(C(=O)Nc2ccc(F)c(Cl)c2)CC(C(=O)NCc2cnc(-c3cccc(Cl)c3)s2)NS1(=O)=O (centres unmarked) [Compound 913] | 50 to 100 | –
27 | CN1C(C(=O)Nc2ccc(F)c(Cl)c2)CC(C(=O)N[C@@H]2CCN(c3ccnc(Cl)c3)C2)NS1(=O)=O (single isomer, unassigned) [1055-R-ISOMER-A] | 100 to 10000 | –
28 | CN1C(C(=O)Nc2ccc(F)c(Cl)c2)CC(C(=O)NC2CCN(C(=O)C3CC3)CC2)NS1(=O)=O (single isomer, unassigned) [Compound 854-ISOMER-A, N3-(3-chloro-4-fluoro-phenyl)-N5-[1-(cyclopropanecarbonyl)-4-piperidyl]-2-methyl-1,1-dioxo-1,2,6-thiadiazinane-3,5-dicarboxamide] | < 50 | –
29 | CN1C(C(=O)Nc2ccc(F)c(Cl)c2)CC(C(=O)NC2CCCc3nc(-c4ccccc4Cl)sc32)NS1(=O)=O (centres unmarked) [Compound 1018] | < 50 | –
30 | COc1ccc(CNC(=O)C2CC(C(=O)Nc3ccc(F)c(Cl)c3)N(C)S(=O)(=O)N2)cc1 (single isomer, unassigned) [Compound 717-ISOMER-B, N3-(3-chloro-4-fluoro-phenyl)-N5-[(4-methoxyphenyl)methyl]-2-methyl-1,1-dioxo-1,2,6-thiadiazinane-3,5-dicarboxamide] | – | 50 to 100
31 | CN1C(C(=O)Nc2ccc(F)c(Cl)c2)CC(C(=O)NC2CCCc3nc(-c4ccc(OCCN5CCCCC5)cc4)sc32)NS1(=O)=O (single isomer, unassigned) [Compound 948-ISOMER-B, N3-(3-chloro-4-fluoro-phenyl)-2-methyl-1,1-dioxo-N5-[2-[4-[2-(1-piperidyl)ethoxy]phenyl]-4,5,6,7-tetrahydro-1,3-benzothiazol-7-yl]-1,2,6-thiadiazinane-3,5-dicarboxamide] | – | 100 to 10000
32 | Cc1ncc(CNC(=O)C2CC(C(=O)Nc3ccc(F)c(Cl)c3)N(C)S(=O)(=O)N2)s1 (single isomer, unassigned) [Compound 495-ISOMER-B, N3-(3-chloro-4-fluoro-phenyl)-2-methyl-N5-[(2-methylthiazol-5-yl)methyl]-1,1-dioxo-1,2,6-thiadiazinane-3,5-dicarboxamide] | < 50 | –
33 | CN1C(C(=O)Nc2ccc(F)c(Cl)c2)CC(C(=O)NCc2cnc(-c3ccc(O)cc3)s2)NS1(=O)=O (single isomer, unassigned; isomer-a) [Compound 924-ISOMER-A, N3-(3-chloro-4-fluroo-phenyl)-N5-[[2-(4-hydroxyphenyl)thiazol-5-yl]methyl]-2-methyl-1,1-dioxo-1,2,6-thiadiazinane-3,5-dicarboxamide] | – | 100 to 10000
34 | CN1C(C(=O)Nc2ccc(F)c(Cl)c2)CC(C(=O)NCc2cnc(-c3ccc(C#N)cc3F)s2)NS1(=O)=O (centres unmarked) [Compound 920] | < 50 | –
35 | C[C@H](NC(=O)C1CC(C(=O)Nc2ccc(F)c(C#N)c2)N(C)S(=O)(=O)N1)c1ccc(F)cc1 (some centres unmarked) [Compound 774] | 100 to 10000 | –
36 | Cc1nc(-c2ccccn2)sc1CNC(=O)C1CC(C(=O)Nc2ccc(F)c(Cl)c2)N(C)S(=O)(=O)N1 (single isomer, unassigned) [1065-ISOMER-A, N3-(3-chloro-4-fluoro-phenyl)-2-methyl-N5-[[4-methyl-2-(2-pyridyl)thiazol-5-yl]methyl]-1,1-dioxo-1,2,6-thiadiazinane-3,5-dicarboxamide] | 100 to 10000 | –
37 | CN(C)CC(C)(C)COc1ccc(-c2ncc(CNC(=O)C3CC(C(=O)Nc4ccc(F)c(Cl)c4)N(C)S(=O)(=O)N3)s2)cc1 (centres unmarked) [Compound 943] | < 50 | –
38 | CCN1C(C(=O)Nc2ccc(F)c(Cl)c2)CC(C(=O)NC2CCN(C(=O)OC)CC2)NS1(=O)=O (single isomer, unassigned) [Compound 890-ISOMER-B, methyl 4-[[5-[(3-chloro-4-fluoro-phenyl)carbamoyl]-6-ethyl-1,1-dioxo-1,2,6-thiadiazinane-3-carbonyl]amino]piperidine-1-carboxylate] | – | 100 to 10000
